From ChEMBL document CHEMBL5500363, “Discovery of novel ocotillol derivatives modulating glucocorticoid receptor/NF-κB signaling for the treatment of sepsis” (Eur J Med Chem, 2024)

Assays:
RAW264.7 [1] = experiment: Inhibition of LPS-induced NO production in mouse RAW264.7 cells at 5 uM pretreated for 2 hrs followed by LPS stimulation for 24 hrs by Griess assay relative to control; type: functional; settings: time 26 hrs
RAW264.7 [2] = experiment: Inhibition of LPS-induced NO production in mouse RAW264.7 cells at 10 uM pretreated for 2 hrs followed by LPS stimulation for 24 hrs by Griess assay relative to control; type: functional; settings: time 26 hrs
RAW264.7 [3] = experiment: Inhibition of LPS-induced NO production in mouse RAW264.7 cells at 20 uM pretreated for 2 hrs followed by LPS stimulation for 24 hrs by Griess assay relative to control; type: functional; settings: time 26 hrs
RAW264.7 [4] = experiment: Inhibition of LPS-induced NO production in mouse RAW264.7 cells pretreated for 2 hrs followed by LPS stimulation for 24 hrs by Griess assay; type: functional, cell-based
[5] = Cytotoxicity against mouse RAW264.7 cells assessed as cell viability at 40 uM incubated for 24 hrs by MTT assay relative to control; type: toxicity, cell-based; settings: read-out: Activity
RAW264.7 [6] = experiment: Cytotoxicity against mouse RAW264.7 cells assessed as cell viability at 40 uM incubated for 24 hrs by MTT assay; type: toxicity, cell-based; settings: raw264.7, 24 h

Structure (SMILES) | inhibition at 5 µM (RAW264.7 [1]) [%] | inhibition at 10 µM (RAW264.7 [2]) [%] | inhibition at 20 µM (RAW264.7 [3]) [%] | IC50 (RAW264.7 [4]) [µM] | viability at 24 h, 40 µM [5] [%] | Activity (RAW264.7 [6])
CC(C)(O)[C@H]1CC[C@@](C)(C2CC[C@]3(C)[C@@H]2[C@H](O)C[C@@H]2[C@@]4(C)CC[C@H](O)C(C)(C)[C@@H]4CC[C@]23C)O1 (some centres undefined) | 13 | 19.7 | 30.3 | 20.8 |  | 
CC(C)(O)[C@@H]1CC[C@@](C)(C2CC[C@]3(C)[C@@H]2[C@H](O)C[C@@H]2[C@@]4(C)CC[C@H](O)C(C)(C)[C@@H]4CC[C@]23C)O1 (some centres undefined) | 5.58 | 8.85 | 22.3 | 30.4 |  | 
CC(C)(O)[C@H]1CC[C@@](C)(C2CC[C@]3(C)[C@@H]2[C@H](O)C[C@@H]2[C@@]4(C)Cc5sc(NC(=O)OC(F)(F)F)nc5C(C)(C)[C@@H]4CC[C@]23C)O1 (some centres undefined) | 8.01 | 21.2 | 37.5 | 35.6 | > 90 | 
CC(C)(C)OC(=O)CC(=O)Nc1nc2c(s1)C[C@]1(C)[C@H]3C[C@@H](O)[C@@H]4C([C@]5(C)CC[C@H](C(C)(C)O)O5)CC[C@@]4(C)[C@]3(C)CC[C@H]1C2(C)C (some centres undefined) | 14.3 | 29.8 | 50 | 17.5 | > 90 | 
CC(C)(O)[C@H]1CC[C@@](C)(C2CC[C@]3(C)[C@@H]2[C@H](O)C[C@@H]2[C@@]4(C)CC[C@H](OC(=O)CCC(=O)Nc5nncs5)C(C)(C)[C@@H]4CC[C@]23C)O1 (some centres undefined) | 10.8 | 18.5 | 35.7 | 40.3 | > 90 | 
CC(C)(O)[C@@H]1CC[C@@](C)(C2CC[C@]3(C)[C@@H]2[C@H](O)C[C@@H]2[C@@]4(C)Cc5sc(NC(=O)OC(F)(F)F)nc5C(C)(C)[C@@H]4CC[C@]23C)O1 (some centres undefined) | 6.07 | 6.84 | 22.2 | 41.6 | > 90 | 
Cc1nnc(NC(=O)CCC(=O)O[C@H]2CC[C@]3(C)[C@H]4C[C@@H](O)[C@@H]5C([C@]6(C)CC[C@H](C(C)(C)O)O6)CC[C@@]5(C)[C@]4(C)CC[C@H]3C2(C)C)s1 (some centres undefined) |  |  |  |  |  | Toxic
CC(C)(O)[C@H]1CC[C@@](C)(C2CC[C@]3(C)[C@@H]2[C@H](O)C[C@@H]2[C@@]4(C)Cc5sc(NC(=O)C(F)(F)F)nc5C(C)(C)[C@@H]4CC[C@]23C)O1 (some centres undefined) |  |  |  |  |  | Toxic
CC(C)(C)OC(=O)NCCCCCCCCCCC(=O)Nc1nc2c(s1)C[C@]1(C)[C@H]3C[C@@H](O)[C@@H]4C([C@]5(C)CC[C@@H](C(C)(C)O)O5)CC[C@@]4(C)[C@]3(C)CC[C@H]1C2(C)C (some centres undefined) | 1.99 | 6.18 | 17.1 | 50.6 | > 90 | 
CC(C)(C)OC(=O)NCCCC(=O)Nc1nc2c(s1)C[C@]1(C)[C@H]3C[C@@H](O)[C@@H]4C([C@]5(C)CC[C@@H](C(C)(C)O)O5)CC[C@@]4(C)[C@]3(C)CC[C@H]1C2(C)C (some centres undefined) |  |  |  |  |  | Toxic
CC(=O)Nc1nc2c(s1)C[C@]1(C)[C@H]3C[C@@H](O)[C@@H]4C([C@]5(C)CC[C@H](C(C)(C)O)O5)CC[C@@]4(C)[C@]3(C)CC[C@H]1C2(C)C (some centres undefined) |  |  |  |  |  | Toxic
CC(C)(O)[C@@H]1CC[C@@](C)(C2CC[C@]3(C)[C@@H]2[C@H](O)C[C@@H]2[C@@]4(C)CC[C@H](OC(=O)CCC(=O)Nc5nnc(Br)s5)C(C)(C)[C@@H]4CC[C@]23C)O1 (some centres undefined) | 34.8 | 47 | 70.2 | 10.3 | > 90 | 
CC(C)(C)OC(=O)NCCCCCC(=O)Nc1nc2c(s1)C[C@]1(C)[C@H]3C[C@@H](O)[C@@H]4C([C@]5(C)CC[C@H](C(C)(C)O)O5)CC[C@@]4(C)[C@]3(C)CC[C@H]1C2(C)C (some centres undefined) |  |  |  |  |  | Toxic
CC(C)(C)OC(=O)NCCCC(=O)Nc1nc2c(s1)C[C@]1(C)[C@H]3C[C@@H](O)[C@@H]4C([C@]5(C)CC[C@H](C(C)(C)O)O5)CC[C@@]4(C)[C@]3(C)CC[C@H]1C2(C)C (some centres undefined) |  |  |  |  |  | Toxic
CC(=O)Nc1nc2c(s1)C[C@]1(C)[C@H]3C[C@@H](O)[C@@H]4C([C@]5(C)CC[C@@H](C(C)(C)O)O5)CC[C@@]4(C)[C@]3(C)CC[C@H]1C2(C)C (some centres undefined) |  |  |  |  |  | Toxic
CC(C)(O)[C@H]1CC[C@@](C)(C2CC[C@]3(C)[C@@H]2[C@H](O)C[C@@H]2[C@@]4(C)Cc5sc(N)nc5C(C)(C)[C@@H]4CC[C@]23C)O1 (some centres undefined) | 19 | 23.9 | 37.7 | 18.9 | > 90 | 

Structure (SMILES) | inhibition at 5 µM (RAW264.7 [1]) [%] | inhibition at 10 µM (RAW264.7 [2]) [%] | inhibition at 20 µM (RAW264.7 [3]) [%] | IC50 (RAW264.7 [4]) [µM] | viability at 24 h, 40 µM [5] [%] | Activity (RAW264.7 [6])
CC(C)(C)OC(=O)CCC(=O)Nc1nc2c(s1)C[C@]1(C)[C@H]3C[C@@H](O)[C@@H]4C([C@]5(C)CC[C@H](C(C)(C)O)O5)CC[C@@]4(C)[C@]3(C)CC[C@H]1C2(C)C (some centres undefined) | 11.1 | 22.5 | 39.1 | 16.5 | > 90 | 
CC(C)(C)OC(=O)CC(=O)Nc1nc2c(s1)C[C@]1(C)[C@H]3C[C@@H](O)[C@@H]4C([C@]5(C)CC[C@@H](C(C)(C)O)O5)CC[C@@]4(C)[C@]3(C)CC[C@H]1C2(C)C (some centres undefined) | 24.5 | 40.7 | 67.2 | 9.17 | > 90 | 
CC(C)(C)OC(=O)NCCCCCCCC(=O)Nc1nc2c(s1)C[C@]1(C)[C@H]3C[C@@H](O)[C@@H]4C([C@]5(C)CC[C@@H](C(C)(C)O)O5)CC[C@@]4(C)[C@]3(C)CC[C@H]1C2(C)C (some centres undefined) | 19.9 | 29.9 | 39.4 | 33.1 | > 90 | 
Cc1nnc(NC(=O)CCC(=O)O[C@H]2CC[C@]3(C)[C@H]4C[C@@H](O)[C@@H]5C([C@]6(C)CC[C@@H](C(C)(C)O)O6)CC[C@@]5(C)[C@]4(C)CC[C@H]3C2(C)C)s1 (some centres undefined) |  |  |  |  |  | Toxic
CC(C)(C)OC(=O)CCCC(=O)Nc1nc2c(s1)C[C@]1(C)[C@H]3C[C@@H](O)[C@@H]4C([C@]5(C)CC[C@@H](C(C)(C)O)O5)CC[C@@]4(C)[C@]3(C)CC[C@H]1C2(C)C (some centres undefined) | 20.4 | 41.2 | 60.4 | 11.6 | > 90 | 
CC(C)(O)[C@@H]1CC[C@@](C)(C2CC[C@]3(C)[C@@H]2[C@H](O)C[C@@H]2[C@@]4(C)CC[C@H](OC(=O)CCC(=O)Nc5nnc(Cl)s5)C(C)(C)[C@@H]4CC[C@]23C)O1 (some centres undefined) | 32.5 | 43.4 | 45.7 | 29.8 | > 90 | 
CC(C)(O)[C@@H]1CC[C@@](C)(C2CC[C@]3(C)[C@@H]2[C@H](O)C[C@@H]2[C@@]4(C)CC[C@H](OC(=O)CCC(=O)Nc5nncs5)C(C)(C)[C@@H]4CC[C@]23C)O1 (some centres undefined) | 7.78 | 21.3 | 58.6 | 17.9 | > 90 | 
CC(C)(O)[C@H]1CC[C@@](C)(C2CC[C@]3(C)[C@@H]2[C@H](O)C[C@@H]2[C@@]4(C)CC[C@H](OC(=O)CCC(=O)Nc5nnc(Cl)s5)C(C)(C)[C@@H]4CC[C@]23C)O1 (some centres undefined) | 28.6 | 47.3 | 57.9 | 11.4 | > 90 | 
CC(C)(O)[C@@H]1CC[C@@](C)(C2CC[C@]3(C)[C@@H]2[C@H](O)C[C@@H]2[C@@]4(C)Cc5sc(NC(=O)C(F)(F)F)nc5C(C)(C)[C@@H]4CC[C@]23C)O1 (some centres undefined) | 14.2 | 20.6 | 30.9 | 25.7 | > 90 | 
CC(C)(C)OC(=O)NCCCCCCCCCCC(=O)Nc1nc2c(s1)C[C@]1(C)[C@H]3C[C@@H](O)[C@@H]4C([C@]5(C)CC[C@H](C(C)(C)O)O5)CC[C@@]4(C)[C@]3(C)CC[C@H]1C2(C)C (some centres undefined) |  |  |  |  |  | Toxic
CC(C)(C)OC(=O)NCCCCCCCC(=O)Nc1nc2c(s1)C[C@]1(C)[C@H]3C[C@@H](O)[C@@H]4C([C@]5(C)CC[C@H](C(C)(C)O)O5)CC[C@@]4(C)[C@]3(C)CC[C@H]1C2(C)C (some centres undefined) |  |  |  |  |  | Toxic
CC(C)(O)[C@@H]1CC[C@@](C)(C2CC[C@]3(C)[C@@H]2[C@H](O)C[C@@H]2[C@@]4(C)Cc5sc(N)nc5C(C)(C)[C@@H]4CC[C@]23C)O1 (some centres undefined) | 11.4 | 23.5 | 36.6 | 26.1 | > 90 | 
CC(C)(O)[C@H]1CC[C@@](C)(C2CC[C@]3(C)[C@@H]2[C@H](O)C[C@@H]2[C@@]4(C)CC[C@H](OC(=O)CCC(=O)Nc5nnc(Br)s5)C(C)(C)[C@@H]4CC[C@]23C)O1 (some centres undefined) |  |  |  |  |  | Toxic
CC(C)(C)OC(=O)CCCC(=O)Nc1nc2c(s1)C[C@]1(C)[C@H]3C[C@@H](O)[C@@H]4C([C@]5(C)CC[C@H](C(C)(C)O)O5)CC[C@@]4(C)[C@]3(C)CC[C@H]1C2(C)C (some centres undefined) | 14.2 | 13.3 | 18.1 | 52 | > 90 | 
CC(C)(C)OC(=O)NCCCCCC(=O)Nc1nc2c(s1)C[C@]1(C)[C@H]3C[C@@H](O)[C@@H]4C([C@]5(C)CC[C@@H](C(C)(C)O)O5)CC[C@@]4(C)[C@]3(C)CC[C@H]1C2(C)C (some centres undefined) | 27.4 | 43.6 | 48.5 | 24.5 | > 90 | 
